Reference: PubChem BioAssay (NCI)
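Dose response: 5 concentrations. Exposure: 48 h. Format: 96-well plates. Endpoint: linear interpolation; highest concentration if not reached. The concentration for full growth arrest is given as TGI.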

What was measured:
Experiment in all cases: inhibition of tumour cell growth, NCI panel, 48 h
[1] = system: 786-0 renal
[2] = system: A498 renal
[3] = system: A549 NSCLC
[4] = system: ACHN renal
[5] = system: BT-549 breast
[6] = system: CAKI-1 renal
[7] = system: CCRF-CEM leukemia
[8] = system: COLO 205 colon
[9] = system: DU-145 prostate
[10] = system: EKVX NSCLC
[11] = system: HCC-2998 colon
[12] = system: HCT-116 colon
[13] = system: HCT-15 colon
[14] = system: HL-60(TB) leukemia
[15] = system: HOP-62 NSCLC
[16] = system: HOP-92 NSCLC
[17] = system: HS 578T breast
[18] = system: HT29 colon
[19] = system: IGROV1 ovarian
[20] = system: K-562 leukemia
[21] = system: KM12 colon
[22] = system: LOX IMVI melanoma
[23] = system: M14 melanoma
[24] = system: MALME-3M melanoma
[25] = system: MCF7 breast
[26] = system: MDA-MB-231 breast
[27] = system: MDA-MB-435
[28] = system: MDA-N
[29] = system: MOLT-4 leukemia
[30] = system: NCI-H226 lung
[31] = system: NCI-H23 lung
[32] = system: NCI-H460 lung
[33] = system: NCI-H522 lung
[34] = system: NCI/ADR-RES ovarian
[35] = system: OVCAR-3 ovarian
[36] = system: OVCAR-4 ovarian
[37] = system: OVCAR-5 ovarian
[38] = system: OVCAR-8 ovarian
[39] = system: PC-3 prostate
[40] = system: RPMI-8226 leukemia
[41] = system: RXF 393 renal
[42] = system: SF-268 CNS
[43] = system: SF-295 CNS
[44] = system: SF-539 CNS
[45] = system: SK-MEL-2 melanoma
[46] = system: SK-MEL-28 melanoma
[47] = system: SK-MEL-5 melanoma
[48] = system: SK-OV-3 ovarian
[49] = system: SN12C renal
[50] = system: SNB-19 CNS
[51] = system: SNB-75 CNS
[52] = system: SR leukemia
[53] = system: SW-620 colon
[54] = system: T-47D breast
[55] = system: TK-10 renal
[56] = system: U251 CNS
[57] = system: UACC-257 melanoma
[58] = system: UACC-62 melanoma
[59] = system: UO-31 renal

## COc1cccc(C2c3cc4c(cc3OC(Nc3ccccc3)C2C)OCO4)c1O (configuration not stated)
[1]
  TGI: 32.1 µM
[2]
  TGI: 23 µM
[3]
  TGI: 23.6 µM
[4]
  TGI: > 68.3 µM
[5]
  TGI: 38.8 µM
[6]
  TGI: 49.1 µM
[7]
  TGI: 16.6 µM
[8]
  TGI: > 35.6 µM
[9]
  TGI: > 53.9 µM
[10]
  TGI: > 55.9 µM
[11]
  TGI: 36.3 µM
[12]
  TGI: 36 µM
[13]
  TGI: 48.4 µM
[14]
  TGI: > 23.9 µM
[15]
  TGI: 36.9 µM
[16]
  TGI: 9.93 µM
[17]
  TGI: > 62.6 µM
[18]
  TGI: 37.7 µM
[19]
  TGI: 35.5 µM
[20]
  TGI: 15 µM
[21]
  TGI: 24.8 µM
[22]
  TGI: 18.9 µM
[23]
  TGI: 15.1 µM
[24]
  TGI: 35.3 µM
[25]
  TGI: > 75 µM
[26]
  TGI: 37 µM
[27]
  TGI: 5.66 µM
[28]
  TGI: 6.98 µM
[29]
  TGI: 16 µM
[30]
  TGI: 33.2 µM
[31]
  TGI: 45.2 µM
[32]
  TGI: 26.4 µM
[33]
  TGI: 20.6 µM
[34]
  TGI: > 100 µM
[35]
  TGI: 29.9 µM
[36]
  TGI: > 100 µM
[37]
  TGI: > 93.8 µM
[38]
  TGI: 35.7 µM
[39]
  TGI: 36.9 µM
[40]
  TGI: 43.8 µM
[41]
  TGI: 31.4 µM
[42]
  TGI: > 55.6 µM
[43]
  TGI: 18.7 µM
[44]
  TGI: 18.1 µM
[45]
  TGI: 51.9 µM
[46]
  TGI: 27 µM
[47]
  TGI: 17.7 µM
[48]
  TGI: > 71.6 µM
[49]
  TGI: 27.8 µM
[50]
  TGI: 74 µM
[51]
  TGI: 26.8 µM
[52]
  TGI: 7.25 µM
[53]
  TGI: 36.8 µM
[54]
  TGI: > 75.4 µM
[55]
  TGI: 64.2 µM
[56]
  TGI: 23.2 µM
[57]
  TGI: > 57.8 µM
[58]
  TGI: 29 µM
[59]
  TGI: 32.4 µM

## CC(C)CCOC(=O)NC(Nc1ccc(F)cc1)(C(F)(F)F)C(F)(F)F
[1]
  TGI: > 100 µM
[2]
  TGI: > 100 µM
[3]
  TGI: > 100 µM
[4]
  TGI: > 100 µM
[5]
  TGI: > 100 µM
[6]
  TGI: > 100 µM
[7]
  TGI: 99.5 µM
[8]
  TGI: 42.1 µM
[9]
  TGI: > 100 µM
[10]
  TGI: > 100 µM
[11]
  TGI: > 100 µM
[12]
  TGI: > 100 µM
[13]
  TGI: > 100 µM
[14]
  TGI: > 100 µM
[15]
  TGI: > 100 µM
[16]
  TGI: > 100 µM
[17]
  TGI: > 100 µM
[18]
  TGI: > 100 µM
[19]
  TGI: > 100 µM
[20]
  TGI: > 100 µM
[21]
  TGI: > 100 µM
[22]
  TGI: > 100 µM
[23]
  TGI: > 100 µM
[24]
  TGI: > 100 µM
[25]
  TGI: > 100 µM
[26]
  TGI: 76.1 µM
[27]
  TGI: > 100 µM
[28]
  TGI: > 100 µM
[29]
  TGI: 76.8 µM
[30]
  TGI: > 100 µM
[31]
  TGI: > 100 µM
[32]
  TGI: > 100 µM
[33]
  TGI: 69.4 µM
[34]
  TGI: > 100 µM
[35]
  TGI: > 100 µM
[37]
  TGI: > 100 µM
[38]
  TGI: > 100 µM
[39]
  TGI: > 100 µM
[40]
  TGI: > 100 µM
[41]
  TGI: > 100 µM
[42]
  TGI: > 100 µM
[43]
  TGI: > 100 µM
[44]
  TGI: 46.1 µM
[45]
  TGI: > 100 µM
[46]
  TGI: > 100 µM
[47]
  TGI: > 100 µM
[48]
  TGI: > 100 µM
[49]
  TGI: > 100 µM
[50]
  TGI: > 100 µM
[51]
  TGI: > 100 µM
[52]
  TGI: 25.4 µM
[53]
  TGI: > 100 µM
[54]
  TGI: 78.5 µM
[55]
  TGI: > 100 µM
[56]
  TGI: > 100 µM
[57]
  TGI: > 100 µM
[58]
  TGI: > 100 µM
[59]
  TGI: 36.5 µM
